# Assay results as given in PMC6259134, “Synthesis, Antimycobacterial, Antifungal and Photosynthesis-Inhibiting Activity of Chlorinated N-phenylpyrazine-2-carboxamides” (Molecules, 2010).
# Values joined by “and” are separate entries in the source; they are usually repeats but may differ in a detail not shown here. Identical values can stand only once. Like-named read-outs stand apart in the source and are kept apart here.
# Assays:
# [1] = tested on: photosynthetic electron transport (PET) in spinach chloroplasts; set-up: method as in earlier work; settings: standard, read-out: PET inhibition IC50; cited from earlier work
# [2] = tested on: photosynthetic electron transport (PET) in spinach chloroplasts; assay: Inhibition of photosynthetic electron transport (PET) in spinach chloroplasts (DCPIP photoreduction); type: biochemical, Spinacia oleracea L.
# Description: The activity of the majority of the studied compounds was moderate or low relative to the standard. Chloroplasts were prepared from spinach (Spinacia oleracea L.) according to Masarovičová and Kráľová [26]. […] [27], and the rate of photosynthetic electron transport was monitored as a photoreduction of DCPIP. The measurements were carried out in phosphate buffer (0.02 mol/L, pH 7.2) containing sucrose (0.4 mol/L), MgCl2 (0.005 mol/L) and NaCl (0.015 mol/L). The chlorophyll content was 30 mg/L in these experiments and the samples were irradiated (~100 W/m^2) from 10 cm distance with a halogen lamp (250 W) using a 4 cm water filter to prevent warming of the samples (suspension temperature 22 °C). The studied compounds were dissolved in DMSO due to their limited water solubility. […] The inhibitory efficiency of the studied compounds was manifested by IC50 values, i.e. by molar concentration of the compounds causing 50% decrease in the […] relative to the untreated control.
# [3] = tested on: M. tuberculosis H37Rv (ATCC27294); assay: In vitro antimycobacterial primary screening (TAACF, BACTEC 460 / MABA); type: cell-based; settings: Mycobacterium tuberculosis, read-out: Antimycobacterial evaluation Inhibition
# Description: All compounds were assayed in vitro against M. tuberculosis H37Rv. […] None of the tested derivatives overcame this limit, see Table 2.
# Antimycobacterial evaluation was carried out in the tuberculosis antimicrobial acquisition and coordinating facility (TAACF), Southern Research Institute, Birmingham, AL, U.S.A., which is a part of the National Institutes of Health (NIH). Primary screening of all compounds was conducted at 6.25 µg/mL against M. tuberculosis H37Rv (ATCC27294) in BACTEC 12B medium using both BACTEC 460 radiometric system and the Microplate Alamar Blue Assay (MABA). For the results see Table 2.
# [4] = Lipophilicity determination by RP-HPLC (capacity factor k / log k, distributive π parameters); type: physicochemical; settings: for log k: RP-HPLC, C18, MeOH 70%/H2O 30%, isocratic; for π determined Ph: distributive parameter of phenyl substituents; for π determined Ph / π determined Pyr: calculated from log k; for π determined Pyr: distributive parameter of pyrazine substituents
# Description: The procedure was performed under isocratic conditions with methanol as an organic modifier in the mobile phase using an end-capped non-polar C18 stationary RP column. The results are shown in Table 1 and illustrated in Figure 2. Waters Alliance 2695 XE HPLC separation module and Waters Photodiode Array Detector 2996 (Waters Corp., Milford, MA, USA) were used. Waters Symmetry® C18 5 μm, 4.6 ° 250 mm, Part No. WAT054275 (Waters Corp., Milford, MA, USA) chromatographic column was used. The HPLC separation process was monitored by Empower™ 2 Chromatography Data Software, Waters 2009 (Waters Corp., Milford, MA, USA). The mixture of MeOH (HPLC grade, 70%) and H2O (HPLC–Mili-Q Grade, 30%) was used as a mobile phase. The total flow rate of the column was 1.0 mL/min, injection volume 30 μL, column temperature 30 °C and sample temperature 10 °C were used. The detection wavelength of 210 nm was chosen. The KI methanolic solution was used for the dead time (tD) determination. Retention times (tR) were measured in minutes. The capacity factors k were calculated using the Empower™ 2 Chromatography Data Software according to formula k = (tR - tD)/tD, where tR is the retention time of the solute, whereas tD denotes the dead time obtained using an unretained analyte. Log k, calculated from the capacity factor k, is used as the lipophilicity index converted to log P scale. Distributive π parameters characterizing lipophilicity of the individual substituents were calculated according to the formula π = log kS – log kU, where log kS is the determined capacity factor logarithm of the individual substituted compounds, whereas log kU denotes the determined capacity factor logarithm of the unsubstituted compound, it means π = 0.
# [5] = tested on: Trichophyton mentagrophytes 445; assay: In vitro antifungal susceptibility testing (microdilution broth method); type: cell-based; settings: T. mentagrophytes; for MIC: Trichophyton mentagrophytes, 445
# [6] = set-up: method as in PMID 1151976, doi:10.1002/9780470171912.ch3; settings: Hammett's constant of R3 phenyl substituent; cited from earlier work
# M. tuberculosis H37Rv = settings: cited from earlier work
# [7] = after 72 h, MIC for moulds determined as IC50 value, read-out: Antifungal susceptibility MIC
# [8] = after 120 h, MIC for moulds determined as IC50 value, read-out: Antifungal susceptibility MIC
compound,measurement,setting,value
"CN(C)C(=O)Nc1ccc(Cl)c(Cl)c1 [DCMU, 3-(3,4-dichlorophenyl)-1,1-dimethylurea]",IC50,[1],~1.9 µM and 1.9 µM
"O=C(Nc1cccc(Cl)c1)c1cncc(Cl)n1 [Compound 2, 6-Chloropyrazine-2-carboxylic acid (3-chlorophenyl)amide]",IC50,[2],262 µM
same,inhibition at 6.25 µg/mL,[3],14%
same,log k,[4],0.7864
same,π determined Ph,[4],0.10
same,π determined Pyr,[4],0.30
same,MIC,[5]; [7],125 µM
same,MIC,[5]; [8],125 µM
same,σ,[6],0.373
"CC(C)(C)c1ncc(C(=O)Nc2cccc(Cl)c2)nc1Cl [Compound 4, 5-tert-Butyl-6-chloropyrazine-2-carboxylic acid (3-chlorophenyl)amide]",IC50,[2],101 µM
same,inhibition at 6.25 µg/mL,[3],0%
same,log k,[4],1.4896
same,π determined Ph,[4],0.25
same,π determined Pyr,[4],1.00
same,MIC,[5]; [7],> 250 µM
same,MIC,[5]; [8],> 250 µM
same,σ,[6],0.373
"CC(C)(C)c1ncc(C(=O)Nc2ccc(Cl)c(Cl)c2)nc1Cl [Compound 16, 6-chloro-5-tert-butyl-N-(3,4-dichlorophenyl)pyrazine-2-carboxamide]",IC50,[2],130 µM
same,inhibition at 6.25 µg/mL,[3],0%
same,log k,[4],1.7563
same,π determined Ph,[4],0.51
same,π determined Pyr,[4],1.04
same,MIC,[5]; [7],62.5 µM
same,MIC,[5]; [8],62.5 µM
same,MIC,"[5]; incubation time not given, read-out: MIC",62.5 µM
same,σ,[6],0.60
"CC(C)(C)c1ncc(C(=O)Nc2c(Cl)cccc2Cl)nc1Cl [Compound 12, 5-tert-Butyl-6-chloro-N-(2,6-dichlorophenyl)pyrazine-2-carboxamide]",IC50,[2],61 µM
same,inhibition at 6.25 µg/mL,[3],0%
same,log k,[4],1.6631
same,π determined Ph,[4],0.42
same,π determined Pyr,[4],1.00
same,MIC,[5]; [7],125 µM
same,MIC,[5]; [8],125 µM
same,σ,[6],0.40
"OC(Cn1cncn1)(Cn1cncn1)c1ccc(F)cc1F [FLU, fluconazole, reference compound]",Antifungal susceptibility MIC,"[5]; after 120 h, MIC for moulds determined as IC50 value",3.91 µM
same,MIC,[5]; [7],1.95 µM
same,MIC,[5]; [8],3.91 µM
CC(C)(C)c1cnc(C(=O)Nc2ccc(Cl)cc2)cn1 [Compound 7],inhibition at 6.25 µg/mL,[3],0%
same,log k,[4],1.1043
same,π determined Ph,[4],0.16
same,π determined Pyr,[4],0.61
same,MIC,[5]; [7],> 250 µM
same,MIC,[5]; [8],> 250 µM
same,σ,[6],0.227
Cc1ccc(NC(=O)c2cnccn2)cc1I [N-(3-iodo-4-methylphenyl)pyrazine-2-carbox-amide],MIC,M. tuberculosis H37Rv,3.13 to 6.25 µg/mL
O=C(Nc1ccc(Cl)c(Cl)c1)c1cnccn1 [Compound 13],inhibition at 6.25 µg/mL,[3],8%
same,log k,[4],0.6962
same,π determined Ph,[4],0.30
same,π determined Pyr,[4],0.00
same,MIC,[5]; [7],> 250 µM
same,MIC,[5]; [8],> 250 µM
same,σ,[6],0.60
CC(C)(C)c1ncc(C(=O)Nc2cccc(C(F)(F)F)c2)nc1Cl [5-tert-butyl-6-chloro-N-(3-trifluoromethylphenyl)pyrazine-2-carboxamide],MIC,M. tuberculosis H37Rv,3.13 to 6.25 µg/mL
"CC(C)(C)c1ncc(C(=O)Nc2ccc(Cl)cc2)nc1Cl [Compound 8, 6-chloro-5-tert-butyl-N-(4-chlorophenyl)pyrazine-2-carboxamide]",IC50,[2],43 µM
same,inhibition at 6.25 µg/mL,[3],24%
same,log k,[4],1.5015
same,π determined Ph,[4],0.26
same,π determined Pyr,[4],1.00
same,MIC,[5]; [7],> 250 µM
same,MIC,[5]; [8],> 250 µM
same,σ,[6],0.227
"O=C(Nc1cccc(Cl)c1)c1cnccn1 [Compound 1, Pyrazine-2-carboxylic acid (3-chlorophenyl)amide]",IC50,[2],290 µM
same,inhibition at 6.25 µg/mL,[3],14%
same,log k,[4],0.4914
same,π determined Ph,[4],0.08
same,π determined Pyr,[4],0.00
same,MIC,[5]; [7],500 µM
same,MIC,[5]; [8],> 500 µM
same,σ,[6],0.373
CC(C)(C)c1cnc(C(=O)Nc2ccc(Cl)c(Cl)c2)cn1 [Compound 15],inhibition at 6.25 µg/mL,[3],15%
same,log k,[4],1.3395
same,π determined Ph,[4],0.40
same,π determined Pyr,[4],0.62
same,MIC,[5]; [7],125 µM
same,MIC,[5]; [8],125 µM
same,σ,[6],0.60
"CC(C)(C)c1cnc(C(=O)Nc2c(Cl)cccc2Cl)cn1 [Compound 11, 5-tert-Butyl-N-(2,6-dichlorophenyl)pyrazine-2-carboxamide]",IC50,[2],153 µM
same,inhibition at 6.25 µg/mL,[3],0%
same,log k,[4],1.2802
same,π determined Ph,[4],0.34
same,π determined Pyr,[4],0.61
same,MIC,[5]; [7],250 µM
same,MIC,[5]; [8],250 µM
same,σ,[6],0.40
"O=C(Nc1c(Cl)cccc1Cl)c1cnccn1 [Compound 9, N-(2,6-dichlorophenyl)pyrazine-2-carboxamide]",inhibition at 6.25 µg/mL,[3],0%
same,log k,[4],0.6656
same,π determined Ph,[4],0.25
same,π determined Pyr,[4],0.00
same,MIC,[5]; [7],> 500 µM
same,MIC,[5]; [8],> 500 µM
same,σ,[6],0.40
O=C(Nc1cccc(C(F)(F)F)c1)c1cnccn1 [N-(3-Trifluoromethylphenyl)pyrazine-2-carboxamide],MIC,M. tuberculosis H37Rv,3.13 to 6.25 µg/mL
"O=C(Nc1c(Cl)cccc1Cl)c1cncc(Cl)n1 [Compound 10, 6-Chloro-N-(2,6-dichlorophenyl)pyrazine-2-carboxamide]",IC50,[2],829 µM
same,inhibition at 6.25 µg/mL,[3],0%
same,log k,[4],0.9456
same,MIC,[5]; [7],> 250 µM
same,MIC,[5]; [8],> 250 µM
same,σ,[6],0.40
"O=C(Nc1ccc(Cl)cc1)c1cncc(Cl)n1 [Compound 6, 6-chloro-N-(4-chlorophenyl)pyrazine-2-carboxamide]",IC50,[2],486 µM
same,inhibition at 6.25 µg/mL,[3],65%
same,log k,[4],0.8185
same,π determined Ph,[4],0.13
same,π determined Pyr,[4],0.32
same,MIC,[5]; [7],> 500 µM
same,MIC,[5]; [8],> 500 µM
same,σ,[6],0.227
"O=C(Nc1ccc(Cl)c(Cl)c1)c1cncc(Cl)n1 [Compound 14, 6-chloro-N-(3,4-dichlorophenyl)pyrazine-2-carboxamide]",IC50,[2],105 µM
same,inhibition at 6.25 µg/mL,[3],61%
same,log k,[4],0.9950
same,π determined Ph,[4],0.31
same,π determined Pyr,[4],0.28
same,MIC,[5]; [7],125 µM
same,MIC,[5]; [8],250 µM
same,σ,[6],0.60
"CC(C)(C)c1cnc(C(=O)Nc2cccc(Cl)c2)cn1 [Compound 3, 5-tert-Butylpyrazine-2-carboxylic acid (3-chlorophenyl)amide]",IC50,[2],95.5 µM
same,inhibition at 6.25 µg/mL,[3],0%
same,log k,[4],1.0996
same,MIC,[5]; [7],> 250 µM
same,MIC,[5]; [8],> 250 µM
same,σ,[6],0.373
O=C(Nc1ccc(Cl)cc1)c1cnccn1 [Compound 5],IC50,[2],1520 µM
same,inhibition at 6.25 µg/mL,[3],4%
same,log k,[4],0.4987
same,π determined Ph,[4],0.09
same,π determined Pyr,[4],0.00
same,MIC,[5]; [7],> 250 µM
same,MIC,[5]; [8],> 250 µM
same,σ,[6],0.227
